The test system of the data set is Cryptosporidium parvum. In words: In vivo model of Tzipori (1998), modified: orally infected baby mice treated for 8 days. The note with it: aurintricarboxylic acid 50 and 100 mmol/kg/day orally in 2 equal portions at 12-hr intervals, suckling C57B1/6 mice infected with 100 000 oocysts. On the set-up: species or system C57B1/6 baby mice. The source says:
In vivo model designed by Tzipori (1998) was used in following modification: Three-day-old, SPF C57B1/6 baby mice (Velaz, Czech Republic) were randomly assigned to groups of 8-9 mice. The baby mice were caged with their mother in sterile microisolators equipped with filter tops under standard conditions. 4-day-old mice were orally infected with 100 000 oocysts and the treatment was initiated at the same time; the daily dose of aurintricarboxylic acid 50 and […] was divided into 2 equal portions and orally administered in 12-hr intervals. A control group received phosphate buffer saline, and paromomycin (100 mg/kg/day) was used as positive control. ATA was prepared fresh before each use by dissolving the drug in aqueous solution of sodium hydroxide or potassium hydroxide at a molar ratio of 1:3 (ATA:NaOH), or in dimethylsulfoxide. […] Intensity of infection was expressed as the number of oocysts in homogenized intestinal tract in the 9th day after infection. The experiment was repeated between 2006 and 2007 and always gave very similar results.
The inihibition aurintricarboxylic acid on experimental Cryptosporidium parvum-infection in suckling C57B16 mice is graphed in FIG. 1.

As to `O=C(O)C1=CC(=C(c2ccc(O)c(C(=O)O)c2)c2ccc(O)c(C(=O)O)c2)C=CC1=O` [aurintricarboxylic acid], the “tolerability of the treatment (visible signs of toxicity)” value was “tolerated without any visible signs of toxicity”.

Source of the values: patent US8053475B2, “Preparation of the formaurindikarboxyl acid base and its derivations and use” (Vyzkumny Ustav Zivocisne Vyroby, V.V.I., priority 2007, dated 2011).
